Values after ≈ are worked out from the molar mass of the structure shown.
Legend:
[1] = system: HEL; test: Antiviral activity was measured against cytomegalovirus (CMV) Davis strain in human embryonic lung (HEL) cells; format: functional, cell-based
[2] = system: HEL; test: Antiviral activity was measured against cytomegalovirus (CMV) AD-169 strain in human embryonic lung (HEL) cells; format: functional, cell-based
[3] = system: HeLa; test: (§1) Cytotoxic activity was measured in human […] cells (HeLa); format: functional
[4] = system: Human immunodeficiency virus 1; test: Tested for its ability to inhibit replication of HIV-1 in MT-4 cells, activity expressed as IC50.; format: functional; conditions: Human immunodeficiency virus 1, MT4
[5] = system: MT4; test: The potential anti-HIV activity was evaluated against HIV-2 ROD strain in MT-4 cells; format: functional, cell-based; conditions: Homo sapiens
[6] = system: HEL; test: Antiviral activity was measured against Varicella-Zoster virus (VZV) 07/1 strain in human embryonic lung (HEL) cells; format: functional, cell-based
[7] = Cytotoxic activity was measured in human embryonic lung cells(HeLa); format: functional
[8] = system: MT4; test: The potential anti-HIV activity was evaluated against HIV-1 IIIb strain in MT-4 cells; format: functional, cell-based; conditions: Homo sapiens
[9] = system: HEL; test: Antiviral activity was measured against Varicella-Zoster virus (VZV) YS/R strain in human embryonic lung (HEL) cells; format: functional, cell-based
[10] = system: HeLa; test: as §1; format: functional; remark: listed apart in the source

Row | Compound | IC50 [1] | IC50 [2] | CC50 [3] | IC50 [4] | IC50 [5] | IC50 [6] | CC50 [7] | IC50 [8] | IC50 [9] | CC50 [10]
1 | Nc1nc2c(ncn2COC(CO)CO)c(=O)[nH]1 [GANCICLOVIR] | 1.3 µg/mL (≈ 5.09 µM) | 1.2 µg/mL (≈ 4.7 µM) | > 50 µg/mL | – | – | – | – | – | – | –
2 | O=C1c2ccccc2N(Cc2ccccc2)S(=O)(=O)N1COCc1ccccc1 | 3.6 µg/mL (≈ 8.81 µM) | 3.6 µg/mL (≈ 8.81 µM) | > 50 µg/mL | 3.7 µg/mL (≈ 9.06 µM) | > 99 µg/mL | > 5 µg/mL | > 125 µg/mL | 3.7 µg/mL (≈ 9.06 µM) | 3 µg/mL (≈ 7.34 µM) | > 50 µg/mL
3 | O=C1c2ccccc2N(COCc2ccccc2)S(=O)(=O)N1Cc1ccccc1 | 12 µg/mL (≈ 29.4 µM) | 11 µg/mL (≈ 26.9 µM) | > 50 µg/mL | – | > 8 µg/mL | 11 µg/mL (≈ 26.9 µM) | 25 µg/mL (≈ 61.2 µM) | > 8 µg/mL | 13 µg/mL (≈ 31.8 µM) | > 50 µg/mL
4 | C#CCOCN1c2ccccc2C(=O)N(Cc2ccccc2)S1(=O)=O | 11 µg/mL (≈ 30.9 µM) | 8.4 µg/mL (≈ 23.6 µM) | > 50 µg/mL | – | > 8 µg/mL | > 5 µg/mL | 23 µg/mL (≈ 64.5 µM) | > 8 µg/mL | > 5 µg/mL | > 50 µg/mL
5 | O=C(OCCOCN1c2ccccc2C(=O)N(Cc2ccccc2)S1(=O)=O)c1ccccc1 | 12 µg/mL (≈ 25.7 µM) | 12 µg/mL (≈ 25.7 µM) | 24 µg/mL (≈ 51.4 µM) | – | > 86 µg/mL | > 12 µg/mL | > 125 µg/mL | 79.3 µg/mL (≈ 170 µM) | > 12 µg/mL | 24 µg/mL (≈ 51.4 µM)
6 | Nc1nc2c(ncn2COCCO)c(=O)[nH]1 [ACYCLOVIR] | – | – | – | – | – | – | – | – | – | 200 µg/mL (≈ 888 µM)

From ChEMBL document CHEMBL1129905, “Benzothiadiazine dioxide acyclonucleosides as lead compounds for the development of new agents against human cytomegalovirus and varicella-zoster virus infections” (Bioorg Med Chem Lett, 1997)
